Test results taken from patent US20160227774A1 (priority 2015, published 2016).
Values joined by “and” are separate entries in the source; they are usually repeats but may differ in a detail not shown here. Equal entries are not always repeated. Structures can show the parent of a compound that is named as a salt. Where two headings read alike, the source gives them in different places.

Legend:
HLB disease = assay: Trial I (Example 3): HLB disease severity (sAUDPS), Midsweet orange, foliar spray; assay type: in vivo, Citrus sinensis; details: end of the experiment
[1] = test system: Candidatus Liberibacter asiaticus (Las); assay type: in vivo
[2] = test system: Ca. Liberibacter asiaticus; assay type: in vivo, Candidatus Liberibacter asiaticus; details: for CT, 1 (mean CT values 1-week after injection) / CT, 0 (mean CT values prior to injection): 4 trees; for CT, 0 (mean CT values prior to injection): baseline; for Effect on Las bacterial populations (in words): second trial, statistical significance only in the first trial
[3] = test system: β-1,3-glucanase gene (PR-2), calS1, pp2; assay type: in vivo, Citrus sinensis; details: for PR-2, calS1 or pp2 gene expression (in words): AA 60 μM, INA 0.1 mM
[4] = test system: Candidatus Liberibacter asiaticus (Las); assay type: in vivo; remark: listed apart in the source
[5] = test system: Candidatus Liberibacter asiaticus (Las); assay type: in vivo; details: BABA 1.0 mM, 2-DDG 100 μM; for Reduction of Las titer compared to control at the end of the experiments: Example 5, Murcott mandarin (10-year), foliar spraying
[6] = test system: Candidatus Liberibacter asiaticus (Las); assay type: in vivo; details: Example 6; Valencia sweet orange (4-year); BABA 0.2-1.0 mM, 2-DDG 100 μM; foliar spraying
[7] = test system: β-1,3-glucanase gene (PR-2), calS1, pp2; assay type: in vivo, Citrus sinensis; details: 2-DDG 100 μM
Midsweet orange [8] = test system: Midsweet orange; set-up: species or system Citrus sinensis; details: in vivo
Midsweet orange [9] = assay type: in vivo, Citrus sinensis; details: BABA 150 μM, INA 0.5 mM, AA 600 μM, CuSO4 0.3 mM, alone or combined
[10] = November 2013, BABA 0.2 mM, INA 0.1 mM, AA 60 μM, 2-DDG 10 μM
[11] = November 2013, BABA 1.0 mM, INA 0.5 mM, BTH 1.0 mM, AA 600 μM, 2-DDG 100 μM, alone or combined
[12] = October 2014 (end of the experiment), BABA 0.2 mM, INA 0.1 mM, AA 60 μM, 2-DDG 10 μM
[13] = October 2014 (end of the experiment), BABA 1.0 mM, INA 0.5 mM, BTH 1.0 mM, AA 600 μM, 2-DDG 100 μM, alone or combined
[14] = Trial 2 (September, 2014), trunk injection SA 8, OTC 7, OA, PPD, ICD, AA, BABA 5 mg ai/tree
[15] = November 2013, BABA 15 μM, INA 0.1 mM, AA 60 μM
[16] = Trial 1 (July, 2014), trunk injection SA 32, OA 40, PPD 40, ICD 67, OTC 50 mg ai/tree

`CC(N)CC(=O)O` (racemic) [BABA, β-aminobutyric acid] was tested, and the “HLB disease severity (sAUDPS) reduced by, compared with the negative control” value (HLB disease; AA 60 μM, BABA 15 μM) was 28.6%, the “HLB disease severity (sAUDPS) reduced by, compared with the negative control” value (HLB disease; BABA 150 μM) was 21.4% and the “Reduction of Las titer compared to control at the end of the experiments” value (from here on “Reduction of Las titer”) ([1]; Example 4, Midsweet orange (8-year), BABA 0.2 mM, foliar spraying) was 0.66 log unit per gram plant tissue. For the same compound, the Las population [1, 10] was “(3.45 ± 0.32) × 10^6 Cells/g of plant tissue”, the Las population [1, 11] was “(4.23 ± 1.22) × 10^6 Cells/g of plant tissue” and the Las population [1, 12] was “(5.84 ± 0.25) × 10^6 Cells/g of plant tissue”. The Las population [1, 13] was “(0.95 ± 0.26) × 10^7 Cells/g of plant tissue”, the “ΔCT = CT, 1 − CT, 0” value [2, 14] was 0.50 and the “CT, 1 (mean CT values 1-week after injection)” value [2, 14] was 22.60. For the same compound, the “CT, 0 (mean CT values prior to injection)” value [2, 14] was 22.10, the “Effect on Las bacterial titer versus control one week after injection (in words)” value ([2]; trunk injection, both trials) was “greatly decreased” and the “PR-2 gene expression (in words)” value ([3]; BABA 150 μM, 6 days after treatment) was “no significant change”. The “PR-2 gene expression compared to the negative control” value ([3]; in vivo) was 3.0 fold, the “pp2 (phloem protein-2) or calS1 expression (in words)” value ([3]; in vivo) was “no effect” and the “Reduction of Las titer” value ([4]; Example 3, Midsweet orange (7-year), BABA 15 μM-150 μM, foliar spraying) was 0.63 log unit per gram plant tissue. The Las population [4, 15] was “(3.67 ± 0.59) × 10^6 Cells/g of plant tissue”, the Las population ([4]; November 2013, BABA 150 μM) was “(6.48 ± 0.61) × 10^6 Cells/g of plant tissue” and the “Reduction of Las titer” value [5] was 0.66 log unit per gram plant tissue. The “Reduction of Las titer” value [6] was 0.68 log unit per gram plant tissue.

`O=CC[C@@H](O)[C@H](O)[C@H](O)CO` [2-DDG, 2-deoxy-D-glucose] was tested, and the Las population [1, 10] was “(4.45 ± 0.94) × 10^6 Cells/g of plant tissue”, the Las population [1, 11] was “(2.64 ± 0.76) × 10^6 Cells/g of plant tissue” and the Las population [1, 12] was “(0.91 ± 0.32) × 10^7 Cells/g of plant tissue”. For the same compound, the Las population [1, 13] was “(4.17 ± 1.02) × 10^6 Cells/g of plant tissue”, the “PR-2, pp2 or calS1 induction (in words)” value [7] was “not able to induce” and the “Reduction of Las titer” value [5] was 0.66 log unit per gram plant tissue. For the same compound, the Fruit acidity (Midsweet orange [8]) was 0.73 a percent citric acid and 0.67 a percent citric acid and 0.69 a percent citric acid and 0.66 a percent citric acid, the Fruit brix (Midsweet orange [8]) was 9.63 a and 10.41 a and 9.20 a and 10.10 a and the “Fruit brix acidity ratio” value (Midsweet orange [8]) was 15.19 a and 13.19 a and 15.17 a and 13.33 a. For the same compound, the “Reduction of Las titer” value [6] was 0.70 log unit per gram plant tissue.

In the case of `O=C1O[C@H]([C@@H](O)CO)C([O-])=C1O.[Na+]` [AA, L-Ascorbic acid sodium salt, reference compound], the “HLB disease severity (sAUDPS) reduced by, compared with the negative control” value (HLB disease; AA 60 μM, BABA 15 μM) is reported as 21.3%, the Las population [1, 10] is reported as “(2.99 ± 0.95) × 10^6 Cells/g of plant tissue” and the Las population [1, 12] is reported as “(3.98 ± 0.81) × 10^6 Cells/g of plant tissue”. For the same compound, the “ΔCT = CT, 1 − CT, 0” value [2, 14] was −0.50, the “CT, 1 (mean CT values 1-week after injection)” value [2, 14] was 21.65 and the “CT, 0 (mean CT values prior to injection)” value [2, 14] was 22.15. For the same compound, the “PR-2, calS1 or pp2 gene expression (in words)” value [3] was “not able to induce”, the Las population [4, 15] was “(3.56 ± 0.57) × 10^6 Cells/g of plant tissue” and the Las population ([5]; Feb.2015, AA 600 μM, INA 0.5 mM, BTH 1.0 mM) was “(3.12 ± 0.22) × 10^7 a Cells/g of leaf tissue”. For the same compound, the “Fruit brix acidity ratio” value (Midsweet orange [8]; sodium salt) was 14.87 a and 12.55 a and the Percent juice content (Midsweet orange [8]; sodium salt) was 53.3 a and 51.1 a.

`CSC(=O)c1cccc2nnsc12` [ASM, acibenzolar-S-methyl] was tested, and the “Effect on Las bacterial populations (in words)” value ([2]; trunk injection) was “moderately reduced”.

`O=S(=O)([O-])[O-].[Cu+2]` [CuSO4, Copper Sulphate] showed a Yield (Midsweet orange [9]; 2013) of 28.4 c kg/tree and a Yield (Midsweet orange [9]; 2014) of 24.1 c kg/tree.

In the case of `O=[N+]([O-])NC1=NCCN1Cc1ccc(Cl)nc1` [ICD, imidacloprid], the “ΔCT = CT, 1 − CT, 0” value [2, 16] is reported as 0.08, the “CT, 1 (mean CT values 1-week after injection)” value [2, 16] is reported as 24.50 and the “CT, 0 (mean CT values prior to injection)” value [2, 16] is reported as 24.42. For the same compound, the “ΔCT = CT, 1 − CT, 0” value [2, 14] was 0.13, the “CT, 1 (mean CT values 1-week after injection)” value [2, 14] was 24.02 and the “CT, 0 (mean CT values prior to injection)” value [2, 14] was 23.89. The “Effect on Las bacterial titer versus control one week after injection (in words)” value ([2]; in vivo) was “did not statistically significantly reduce”.

`O=C(O)c1cc(Cl)nc(Cl)c1` [INA, 2,6-dichloro-isonicotinic acid, reference compound] was tested, and the Las population [1, 10] was “(2.07 ± 0.33) × 10^6 Cells/g of plant tissue”, the Las population [1, 12] was “(3.91 ± 0.85) × 10^6 Cells/g of plant tissue” and the “Effect on Las bacterial titer versus control one week after injection (in words)” value ([2]; trunk injection, both trials) was “did not statistically significantly reduce”. For the same compound, the “PR-2, calS1 or pp2 gene expression (in words)” value [3] was “not able to induce”, the Las population [4, 15] was “(4.06 ± 0.25) × 10^6 Cells/g of plant tissue” and the Las population ([4]; October 2014 (end of the experiment), BABA 15 μM, INA 0.1 mM, AA 60 μM) was “(5.94 ± 0.36) × 10^6 Cells/g of plant tissue”. The Percent juice content (Midsweet orange [8]) was 50.5 a and 51.1 a.

With `O=C(O)C(=O)O` [OA, oxalic acid] the “ΔCT = CT, 1 − CT, 0” value [2, 16] was 2.83, the “CT, 1 (mean CT values 1-week after injection)” value [2, 16] was 26.59 and the “CT, 0 (mean CT values prior to injection)” value [2, 16] was 23.76. For the same compound, the “ΔCT = CT, 1 − CT, 0” value [2, 14] was 0.70, the “CT, 1 (mean CT values 1-week after injection)” value [2, 14] was 26.17 and the “CT, 0 (mean CT values prior to injection)” value [2, 14] was 25.47. For the same compound, the “ΔCT compared with that of OTC (in words)” value ([2]; trunk injection) was “not significantly different” and the “Effect on Las bacterial titer versus control one week after injection (in words)” value ([2]; trunk injection, both trials) was “significantly reduced”.

With `CN(C)[C@@H]1C(O)=C(C(N)=O)C(=O)[C@@]2(O)C(O)=C3C(=O)c4c(O)cccc4[C@@](C)(O)[C@H]3[C@H](O)[C@@H]12` [OTC, oxytetracycline hydrochloride, reference compound] the “ΔCT = CT, 1 − CT, 0” value [2, 16] was 1.33, the “CT, 1 (mean CT values 1-week after injection)” value [2, 16] was 29.28 and the “CT, 0 (mean CT values prior to injection)” value [2, 16] was 27.95. The “ΔCT = CT, 1 − CT, 0” value [2, 14] was 0.90, the “CT, 1 (mean CT values 1-week after injection)” value [2, 14] was 25.54 and the “CT, 0 (mean CT values prior to injection)” value [2, 14] was 24.64.

In the case of `O=P([O-])([O-])O.[K+].[K+]` [PPD, potassium phosphate dibasic, reference compound], the “ΔCT = CT, 1 − CT, 0” value [2, 16] is reported as 2.64, the “CT, 1 (mean CT values 1-week after injection)” value [2, 16] is reported as 26.56 and the “CT, 0 (mean CT values prior to injection)” value [2, 16] is reported as 23.92. The “ΔCT = CT, 1 − CT, 0” value [2, 14] was 0.34, the “CT, 1 (mean CT values 1-week after injection)” value [2, 14] was 23.63 and the “CT, 0 (mean CT values prior to injection)” value [2, 14] was 23.29. The “Effect on Las bacterial populations (in words)” value ([2]; trunk injection) was “moderately reduced”.

In the case of `O=C(O)c1ccccc1O` [SA, salicylic acid], the “ΔCT = CT, 1 − CT, 0” value [2, 16] is reported as 1.73, the “CT, 1 (mean CT values 1-week after injection)” value [2, 16] is reported as 25.34 and the “CT, 0 (mean CT values prior to injection)” value [2, 16] is reported as 23.61. For the same compound, the “ΔCT = CT, 1 − CT, 0” value [2, 14] was 0.95, the “CT, 1 (mean CT values 1-week after injection)” value [2, 14] was 24.88 and the “CT, 0 (mean CT values prior to injection)” value [2, 14] was 23.93. For the same compound, the “ΔCT compared with that of OTC (in words)” value ([2]; trunk injection) was “not significantly different” and the “Effect on Las bacterial titer versus control one week after injection (in words)” value ([2]; trunk injection, both trials) was “significantly reduced”.
